Where a name gives a salt, the structure may show the parent alone. Read-outs that look alike come from different tables or passages of the source.
Experiments:
[1] = biological target: T1, Human BACE2 (Homo sapiens, UniProt Q9Y5Z0); test: TR-FRET assay; type: biochemical; conditions: enzyme 2.7 μg/mL, substrate 100 nM, pH4.5
T1 construct: the soluble part of the human β-Secretase2 (AA1-AA473) was cloned using BACE2(1-473)-(AVT)-Fc-pDEST12.2 mammalian expression vector; AVT linker (C); made in house
T1 sequence (Q9Y5Z0 21-473): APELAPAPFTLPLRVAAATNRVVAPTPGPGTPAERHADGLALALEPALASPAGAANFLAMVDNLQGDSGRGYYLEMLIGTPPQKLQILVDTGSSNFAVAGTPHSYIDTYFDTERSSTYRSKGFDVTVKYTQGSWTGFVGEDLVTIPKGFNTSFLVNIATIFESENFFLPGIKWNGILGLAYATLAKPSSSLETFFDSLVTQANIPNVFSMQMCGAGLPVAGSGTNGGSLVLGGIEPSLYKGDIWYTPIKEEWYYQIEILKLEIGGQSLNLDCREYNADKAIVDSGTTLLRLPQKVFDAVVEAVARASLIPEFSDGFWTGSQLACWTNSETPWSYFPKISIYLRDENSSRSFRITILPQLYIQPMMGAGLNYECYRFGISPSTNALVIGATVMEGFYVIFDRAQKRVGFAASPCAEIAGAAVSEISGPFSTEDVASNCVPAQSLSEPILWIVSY
Description: (§1) The β-secretase enzyme used in the TR-FRET was prepared as follows:
(§2) Human BACE1: the cDNA for the soluble part of the human β-Secretase1 (AA1-AA460) was cloned using the BACE1(1-460)-(AVT)-Fc-pGEN-IRES-neo mammalian expression vector. The gene was fused to the Fe domain of IgG1 (affinity tag) and stably cloned into HEK 293 cells. […]
(§3) A multidrop Combi was used for the liquid handling. Enzyme (7 μL) was added to the compound plate (containing 0.8 μL of compound in dimethylsulphoxide). The plate was incubated for 10 minutes. Substrate (8 μL) was then added, and the reaction proceeded for 17 minutes at r.t. The reaction was stopped with the addition of Stop solution (5.5 μL, NaOAC, pH 9). Fluorescence was measured on a Pherastar plate reader using HTRF module. […] 5 reference inhibitors with different affinities were used at all screen occasions in dose response.

[2] = biological target: T2, Human BACE1 (Homo sapiens, UniProt P56817); test: Diluted TR-FRET assay; type: biochemical; conditions: 50 times less enzyme, 6.5 h reaction time at r.t.; read-out: IC50 BACE1 (dil. TR-FRET)
T2 construct: the soluble part of the human β-Secretase1 (AA1-AA460) was cloned using the BACE1(1-460)-(AVT)-Fc-pGEN-IRES-neo mammalian expression vector; AVT linker (C); made in house
T2 sequence (P56817 22-460): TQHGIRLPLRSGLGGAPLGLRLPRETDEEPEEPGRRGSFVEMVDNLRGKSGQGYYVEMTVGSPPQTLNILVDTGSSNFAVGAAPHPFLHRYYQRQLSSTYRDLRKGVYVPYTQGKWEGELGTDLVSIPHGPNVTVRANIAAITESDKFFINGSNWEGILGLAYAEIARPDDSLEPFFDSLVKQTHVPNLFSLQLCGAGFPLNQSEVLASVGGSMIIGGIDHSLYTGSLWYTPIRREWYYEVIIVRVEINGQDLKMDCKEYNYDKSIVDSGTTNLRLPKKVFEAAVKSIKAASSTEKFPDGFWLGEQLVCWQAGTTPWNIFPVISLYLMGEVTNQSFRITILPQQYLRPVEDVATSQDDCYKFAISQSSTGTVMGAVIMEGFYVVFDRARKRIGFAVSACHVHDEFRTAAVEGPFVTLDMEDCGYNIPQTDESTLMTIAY
Description: as §1, §2
as §3, with “Substrate (8 μL) was then added, and the reaction proceeded for 17 minutes at r.t.” left out

[3] = system: SH-SY5Y cells; test: sAPPβ release assay
Description: Cells were thawed and seeded at a concentration of around 10000 cells/well in DMEM/F-12 with Glutamax, 10% FCS and 1% non-essential amino acids to a 384-well tissue culture treated plate, 30 μL cell susp/well. The cell plates were then incubated for 7-24 h at 37° C., 5% CO2.
The cell medium was removed, followed by addition of 50 μL compound diluted in DMEM/F-12 with Glutamax, 10% FCS, 1% non-essential amino acids to a final cone of 0.5% DMSO. The compounds were incubated with the cells for 16-17 h (overnight) at 37° C., 5% CO2.
Meso Scale Discovery (MSD) plates were used for the detection of sAPP release. MSD sAPPβ plates were blocked in 1% BSA in Tris wash buffer for 1 h on shake at r.t. and washed 1 time in Tris wash buffer. […] The MSD plates were incubated with shaking at r.t. for 2 h and the media discarded. 10 μL detection antibody was added (1 nM) per well followed by incubation with shaking at r.t. for 2 h and then discarded. 35 μL Read Buffer was added per well and the plates were read in a Meso Scale Discovery SECTOR6000 Imager.

[4] = Homo sapiens, SH-SY5Y, read-out: IC50 Cell (sAPPβ release, nM), SH-SY5Y cells, compounds incubated 16-17 h
[5] = Homo sapiens, SH-SY5Y, read-out: IC50 Cell (sAPPβ release, nM)

Compound | IC50 [1] [nM] | IC50 [2] [nM] | IC50 [3, 4] [nM] | IC50 ([3]; read-out: IC50 Cell (sAPPβ release), SH-SY5Y cells, compounds incubated 16-17 h) [nM] | IC50 [3, 5] [nM]
[2H]C1([2H])OC(N)=N[C@]12c1cc(C#CC(C)C)ccc1C[C@@]21CC[C@H](O)[C@@H](C)C1 (racemic) [Compound 11, (1S,3S,4S)-2″-amino-3-methyl-6′-(3-methylbut-1-yn-1-yl)-3′H,5″H-dispiro[cyclohexane-1,2′-indene-1′,4″-oxazol]-5″,5″-d2-4-ol and (1R,3R,4R)-2″-amino-3-methyl-6′-(3-methylbut-1-yn-1-yl)-3′H,5″H-dispiro[cyclohexane-1,2′-indene-1′,4″-oxazol]-5″,5″-d2-4-ol] | 519 | 266 | 0.9 |  | 
[2H]C1([2H])OC(N)=N[C@]12c1cc(-c3cccnc3F)ccc1C[C@@]21CC[C@H](OC)[C@@H](C)C1 [Compound 5, (1S,1′R,3S,4S)-6′-(2-fluoropyridin-3-yl)-4-methoxy-3-methyl-3′H,5″H-dispiro[cyclohexane-1,2′-indene-1′,4″-oxazol]-5″,5″-d2-2″-amine] | 888 |  | 1.6 |  | 
CO[C@H]1CC[C@]2(CC1)Cc1ccc(-c3cncnc3)cc1[C@@]21COC(N)=N1 [Compound 47, (1r,1′R,4R)-4-methoxy-6′-(pyrimidin-5-yl)-3′H,5″H-dispiro[cyclohexane-1,2′-indene-1′,4″-oxazol]-2″-amine] |  | 152 |  |  | 9.1
CO[C@H]1CC[C@]2(CC1)Cc1ccc(-c3cncnc3)cc1C21COC(N)=N1 (stereo partly shown) [Compound 50, (1r,4r)-4-methoxy-6′-(pyrimidin-5-yl)-3′H,5″H-dispiro[cyclohexane-1,2′-indene-1′,4″-oxazol]-2″-amine] |  | 579 |  |  | 16
[2H]C1([2H])OC(N)=NC12c1cc(-c3cc(Cl)cc(C#N)c3)ccc1C[C@@]21C[C@@H](C)[C@H](OC)[C@@H](C)C1 (stereo partly drawn) [Compound 52, 3-((1r,3R,4r,5S)-2″-amino-4-methoxy-3,5-dimethyl-3′H,5″H-dispiro[cyclohexane-1,2′-indene-1′,4″-oxazol]-6′-yl-5″,5″-d2)-5-chlorobenzonitrile] |  | 4.7 |  | 4.3 | 
[2H]C1([2H])OC(N)=N[C@]12c1cc(-c3cccnc3F)ccc1C[C@]21CC[C@@H](OC)[C@H](C)C1 [Compound 67, (1R,1′R,3R,4R)-6′-(2-fluoropyridin-3-yl)-4-methoxy-3-methyl-3′H,5″H-dispiro[cyclohexane-1,2′-indene-1′,4″-oxazol]-5″,5″-d2-2″-amine] | 736 |  | 1.7 |  | 
[2H]C([2H])([2H])O[C@@H]1CC[C@]2(Cc3ccc(-c4cccnc4F)cc3[C@]23N=C(N)OC3([2H])[2H])C[C@H]1C [Compound 78, (1R,1′R,3R,4R)-6′-(2-fluoropyridin-3-yl)-4-(methoxy-d3)-3-methyl-3′H,5″H-dispiro[cyclohexane-1,2′-indene-1′,4″-oxazol]-5″,5″-d2-2″-amine] | 895 |  | 1.5 |  | 
[2H]C1([2H])OC(N)=N[C@]12c1cc(-c3cccnc3)ccc1C[C@]21CC[C@@H](OC)CC1 [Compound 117, {(1r,1′R,4R)-4-methoxy-6′-(pyrimidin-3-yl)-3′H,5″H-dispiro[cyclohexane-1,2′-indene-1′,4″-oxazol]-5″,5″-d2-2″-amine}] |  | 341 |  |  | 7
[2H]C1([2H])OC(N)=N[C@]12c1cc(-c3cncnc3)ccc1C[C@]21CC[C@@H](OC)CC1 [Compound 118, {(1r,1′R,4R)-4-methoxy-6′-(pyrimidin-5-yl)-3′H,5″H-dispiro[cyclohexane-1,2′-indene-1′,4″-oxazol]-5″,5″-d2-2″-amine}] |  | 287 |  |  | 6

Continued, in another order:

IC50 [1] [nM] | IC50 [2] [nM] | IC50 [3, 4] [nM] | IC50 ([3]; read-out: IC50 Cell (sAPPβ release), SH-SY5Y cells, compounds incubated 16-17 h) [nM] | Compound | IC50 [3, 5] [nM]
144 | 239 | 5.3 |  | [2H]C1([2H])OC(N)=N[C@]12c1cc(-c3cncc(C4CC4)c3)ccc1C[C@]21CC[C@@H](OC)[C@H](C)C1 [Compound 1, (1R,1′R,3R,4R)-6′-(5-cyclopropylpyridin-3-yl)-4-methoxy-3-methyl-3′H,5″H-dispiro[cyclohexane-1,2′-indene-1′,4″-oxazol]-5″,5″-d2-2″-amine formate Salt] | 
17 | 6.2 | 0.27 |  | [2H]C1([2H])OC(N)=N[C@]12c1cc(-c3cncc(C#CC)c3)ccc1C[C@]21CC[C@@H](OC)[C@H](C)C1 [Compound 2, (1R,1′R,3R,4R)-4-methoxy-3-methyl-6′-(5-(prop-1-yn-1-yl)pyridin-3-yl)-3′H,5″H-dispiro[cyclohexane-1,2′-indene-1′,4″-oxazol]-5″,5″-d2-2″-amine] | 
16 | 1.1 | 0.2 |  | [2H]C1([2H])OC(N)=N[C@]12c1cc(-c3cncc(C#CC)c3)ccc1C[C@@]21CC[C@H](OC)[C@@H](C)C1 [Compound 3, (1S,1′R,3S,4S)-4-methoxy-3-methyl-6′-(5-(prop-1-yn-1-yl)pyridin-3-yl)-3′H,5″H-dispiro[cyclohexane-1,2′-indene-1′,4″-oxazol]-5″,5″-d2-2″-amine] | 
37.8 | 6.8 | 0.39 |  | [2H]C1([2H])OC(N)=N[C@]12c1cc(-c3cncc(Cl)c3)ccc1C[C@@]21CC[C@H](OC)[C@@H](C)C1 [Compound 4, (1S,1′R,3S,4S)-6′-(5-chloropyridin-3-yl)-4-methoxy-3-methyl-3′H,5″H-dispiro[cyclohexane-1,2′-indene-1′,4″-oxazol]-5″,5″-d2-2″-amine] | 
118 |  | 0.5 |  | [2H]C1([2H])OC(N)=N[C@]12c1cc(-c3cncc(F)c3)ccc1C[C@@]21CC[C@H](OC)[C@@H](C)C1 [Compound 9, (1S,1′R,3S,4S)-6′-(5-fluoropyridin-3-yl)-4-methoxy-3-methyl-3′H,5″H-dispiro[cyclohexane-1,2′-indene-1′,4″-oxazol]-5″,5″-d2-2″-amine] | 
135 |  | 1.8 |  | [2H]C1([2H])OC(N)=N[C@]12c1cc(-c3cncc(F)c3)ccc1C[C@]21CC[C@@H](OC)[C@H](C)C1 [Compound 25, (1R,1′R,3R,4R)-6′-(5-fluoropyridin-3-yl)-4-methoxy-3-methyl-3′H,5″H-dispiro[cyclohexane-1,2′-indene-1′,4″-oxazol]-5″,5″-d2-2″-amine] | 
134 |  | < 0.16 |  | [2H]C([2H])([2H])O[C@H]1CC[C@@]2(Cc3ccc(-c4cncc(F)c4)cc3[C@]23N=C(N)OC3([2H])[2H])C[C@@H]1C [Compound 66, (1S,1′R,3S,4S)-6′-(5-fluoropyridin-3-yl)-4-(methoxy-d3)-3-methyl-3′H,5″H-dispiro[cyclohexane-1,2′-indene-1′,4″-oxazol]-5″,5″-d2-2″-amine] | 
231 |  | 0.5 |  | [2H]C1([2H])OC(N)=N[C@]12c1cc(-c3cc(F)cnc3F)ccc1C[C@@]21CC[C@H](OC)[C@@H](C)C1 [Compound 76, (1S,1′R,3S,4S)-6′-(2,5-difluoropyridin-3-yl)-4-methoxy-3-methyl-3′H,5″H-dispiro[cyclohexane-1,2′-indene-1′,4″-oxazol]-5″,5″-d2-2″-amine] | 
207 |  | 2.1 |  | [2H]C([2H])([2H])O[C@@H]1CC[C@]2(Cc3ccc(-c4cncc(F)c4)cc3[C@]23N=C(N)OC3([2H])[2H])C[C@H]1C [Compound 79, (1R,1′R,3R,4R)-6′-(5-fluoropyridin-3-yl)-4-(methoxy-d3)-3-methyl-3′H,5″H-dispiro[cyclohexane-1,2′-indene-1′,4″-oxazol]-5″,5″-d2-2″-amine] | 
458 |  | 1.8 |  | [2H]C1([2H])OC(N)=N[C@]12c1cc(-c3cc(F)cnc3F)ccc1C[C@]21CC[C@@H](OC)[C@H](C)C1 [Compound 109, {(1R,1′R,3R,4R)-6′-(2,5-difluoropyridin-3-yl)-4-methoxy-3-methyl-3′H,5″H-dispiro[cyclohexane-1,2′-indene-1′,4″-oxazol]-5″,5″-d2-2″-amine}] | 
